The test system of the experiment is L1210 leukemia ip in BDF1 mice, survival T/C. Description: NCI In Vivo Anticancer Drug Screen. Data for tumor model L1210 Leukemia (intraperitoneal) in B6D2F1 (BDF1) mice. The note with it: endpoint: mean survival time, higher = longer survival. An outline of the steps: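 In this screen, tumor-bearing mice given compound are compared to those given vehicle, and their survival values are reported as a treated-to-control quotient.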

Setting [1] is: dose: 25.0 mg/kg/injection, schedule: Q01DX009 (ip), vehicle: saline.
Where [2] appears, read: dose: 50.0 mg/kg/injection, schedule: Q01DX009 (ip), vehicle: saline.
The mark [3] stands for this setting: dose: 200.0 mg/kg/injection, schedule: Q04DX002 (ip), vehicle: saline.
Where [4] appears, read: dose: 100.0 mg/kg/injection, schedule: Q01DX001 (ip), vehicle: saline.
The mark [5] stands for this setting: dose: 300.0 mg/kg/injection, schedule: Q01DX001 (ip), vehicle: saline.
Where [6] appears, read: dose: 100.0 mg/kg/injection, schedule: Q01DX009 (ip), vehicle: Klucel (hydroxypropylcellulose) (HPC).
[7] abbreviates: dose: 100.0 mg/kg/injection, schedule: Q04DX003 (ip), vehicle: Klucel (hydroxypropylcellulose) (HPC).
The mark [8] stands for this setting: dose: 200.0 mg/kg/injection, schedule: Q04DX003 (ip), vehicle: Klucel (hydroxypropylcellulose) (HPC).
The mark [9] stands for this setting: dose: 25.0 mg/kg/injection, schedule: Q01DX009 (ip), vehicle: saline with Tween-80.
[10] abbreviates: dose: 100.0 mg/kg/injection, schedule: Q01DX009 (ip), vehicle: saline with Tween-80.
[11] abbreviates: dose: 100.0 mg/kg/injection, schedule: Q04DX002 (ip), vehicle: saline.
The mark [12] stands for this setting: dose: 400.0 mg/kg/injection, schedule: Q04DX002 (ip), vehicle: saline.

The values below come from PubChem BioAssay AID248 (DTP/NCI, 2004).

Several values for one entry are separate records, joined by “and”; a condition that tells them apart may be missing. Identical values can stand only once. Inconclusive results and toxic doses are left out.

As for `Cc1cc(NC(=O)c2ccc(C(=O)Nc3ccc(C4=NCCN4)c(C)c3)cc2)ccc1C1=NCCN1`, the T/C is, setting by setting: (dose: 48.0 mg/kg/injection, schedule: Q01DX Z (ip), vehicle: carboxymethylcellulose (CMC)) 109 % of control; (dose: 72.0 mg/kg/injection, schedule: Q01DX Z (ip), vehicle: carboxymethylcellulose (CMC)) 122 % of control; (dose: 100.0 mg/kg/injection, schedule: Q01DX Z (oral), vehicle: water) 92 % of control; (dose: 110.0 mg/kg/injection, schedule: Q01DX Z (ip), vehicle: carboxymethylcellulose (CMC)) 150 % of control and 277 % of control; (dose: 168.0 mg/kg/injection, schedule: Q01DX Z (ip), vehicle: carboxymethylcellulose (CMC)) 164 % of control; (dose: 200.0 mg/kg/injection, schedule: Q01DX Z (oral), vehicle: water) 107 % of control. For the same compound, the T/C is 108 % of control and 112 % of control (dose: 250.0 mg/kg/injection, schedule: Q01DX Z (ip), vehicle: carboxymethylcellulose (CMC)); 92 % of control (dose: 375.0 mg/kg/injection, schedule: Q01DX Z (ip), vehicle: carboxymethylcellulose (CMC)); 92 % of control (dose: 400.0 mg/kg/injection, schedule: Q01DX Z (oral), vehicle: water); 102 % of control (dose: 800.0 mg/kg/injection, schedule: Q01DX Z (oral), vehicle: water).
Turning to `COc1cc2c(c(OC)c1O)-c1ccc(OC)c(=O)cc1[C@@H](NC(C)=O)CC2`, the T/C runs as follows: under setting [1], 159 % of control; under setting [2], 106 % of control and 108 % of control; (dose: 50.0 mg/kg/injection, schedule: Q04DX002 (ip), vehicle: saline) 111 % of control; under setting [3], 122 % of control; (dose: 200.0 mg/kg/injection, schedule: Q04DX003 (ip), vehicle: saline) 95 % of control.
Regarding `O=C(OCC1OC(n2cnc3c(=S)nc[nH]c32)C(OC(=O)c2ccc([N+](=O)[O-])cc2)C1OC(=O)c1ccc([N+](=O)[O-])cc1)c1ccc([N+](=O)[O-])cc1` (configuration not stated), the T/C runs as follows: (dose: 16.5 mg/kg/injection, schedule: Q01DX009 (ip), vehicle: saline with Tween-80) 95 % of control; (dose: 33.0 mg/kg/injection, schedule: Q01DX009 (ip), vehicle: saline with Tween-80) 117 % of control; under setting [4], 121 % of control; (dose: 100.0 mg/kg/injection, schedule: Q01DX Z (ip), vehicle: other) 112 % of control; (dose: 132.0 mg/kg/injection, schedule: Q01DX001 (ip), vehicle: saline) 111 % of control and 118 % of control; (dose: 200.0 mg/kg/injection, schedule: Q01DX001 (ip), vehicle: saline) 106 % of control and 120 % of control. Further, the T/C by setting is: (dose: 200.0 mg/kg/injection, schedule: Q01DX009 (ip), vehicle: saline) 152 % of control; under setting [5], 117 % of control; (dose: 800.0 mg/kg/injection, schedule: Q01DX Z (ip), vehicle: other) 93 % of control.
With `CC(=O)OC1CCC2(C)C(CCC3C2CCC2(C)C(C(C)=O)CCC32)C1` (configuration not stated), the T/C is 95 % of control (dose: 100.0 mg/kg/injection, schedule: Q01DX009 (sc), vehicle: steriod suspending solution); 95 % of control (dose: 200.0 mg/kg/injection, schedule: Q01DX009 (sc), vehicle: steriod suspending solution); 90 % of control (dose: 400.0 mg/kg/injection, schedule: Q01DX009 (sc), vehicle: steriod suspending solution).
For `N#CSC/C=C/Cl`, the T/C is, setting by setting: (dose: 50.0 mg/kg/injection, schedule: Q01DX009 (ip), vehicle: Klucel (hydroxypropylcellulose) (HPC)) 94 % of control; under setting [6], 107 % of control; under setting [7], 92 % of control; under setting [8], 90 % of control.
As for `CN(C)c1ccc(NC(=O)NCCCl)cc1`, the T/C was 106 % of control under setting [7] and 103 % of control under setting [8].
Consider `N#CC1(C#N)C(c2ccccc2)C1(C#N)C#N`, for which the T/C is, setting by setting: (dose: 6.25 mg/kg/injection, schedule: Q01DX009 (ip), vehicle: saline with Tween-80) 107 % of control; (dose: 6.25 mg/kg/injection, schedule: Q04DX003 (ip), vehicle: saline sonified) 102 % of control; (dose: 12.5 mg/kg/injection, schedule: Q01DX009 (ip), vehicle: saline with Tween-80) 105 % of control; (dose: 12.5 mg/kg/injection, schedule: Q04DX003 (ip), vehicle: saline sonified) 113 % of control; under setting [9], 105 % of control; (dose: 25.0 mg/kg/injection, schedule: Q04DX003 (ip), vehicle: saline sonified) 96 % of control.
Regarding `CCCCCCCCC(O)CCCCCCCCC(=O)O` (configuration not stated), the T/C is, setting by setting: under setting [10], 101 % of control; (dose: 200.0 mg/kg/injection, schedule: Q01DX009 (ip), vehicle: saline with Tween-80) 97 % of control; (dose: 400.0 mg/kg/injection, schedule: Q01DX009 (ip), vehicle: saline with Tween-80) 86 % of control.
On to `C(CCSC1=NCCN1)CSC1=NCCN1`, for which the T/C under setting [11] is 105 % of control.
Turning to `COC(=O)c1cc(Cl)ccc1OCC(=O)Nc1cccc([N+](=O)[O-])c1`, the T/C under setting [6] was 96 % of control; the T/C (dose: 100.0 mg/kg/injection, schedule: Q04DX002 (ip), vehicle: Klucel (hydroxypropylcellulose) (HPC)) was 94 % of control; the T/C under setting [11] is 94 % of control; the T/C (dose: 200.0 mg/kg/injection, schedule: Q01DX009 (ip), vehicle: Klucel (hydroxypropylcellulose) (HPC)) is 89 % of control; the T/C (dose: 200.0 mg/kg/injection, schedule: Q04DX002 (ip), vehicle: Klucel (hydroxypropylcellulose) (HPC)) is 92 % of control; the T/C under setting [3] was 97 % of control. Moreover, the T/C is 104 % of control (dose: 400.0 mg/kg/injection, schedule: Q01DX009 (ip), vehicle: Klucel (hydroxypropylcellulose) (HPC)); 92 % of control (dose: 400.0 mg/kg/injection, schedule: Q04DX002 (ip), vehicle: Klucel (hydroxypropylcellulose) (HPC)); 97 % of control under setting [12].
Turning to `O=c1oc(-c2ccc(Cl)cc2)nc2cc(Cl)ccc12`, the T/C under setting [9] is 93 % of control; the T/C (dose: 50.0 mg/kg/injection, schedule: Q01DX009 (ip), vehicle: saline with Tween-80) is 97 % of control; the T/C under setting [10] is 93 % of control.
With `CC1(C)N=C(N)N=C(N)N1NC(=O)c1ccc(Cl)cc1`, the T/C by setting is: (dose: 100.0 mg/kg/injection, schedule: Q04DX003 (ip), vehicle: saline with Tween-80) 100 % of control; (dose: 200.0 mg/kg/injection, schedule: Q04DX003 (ip), vehicle: saline with Tween-80) 103 % of control.
On to `COCC(O)CN1CCN(c2ccccc2C)CC1` (configuration not stated), for which the T/C was 108 % of control under setting [1]; 93 % of control under setting [2]; 100 % of control (dose: 100.0 mg/kg/injection, schedule: Q01DX009 (ip), vehicle: saline).
On to `CC1CN=C(c2c(O)ccc3ccccc23)S1` (configuration not stated), for which the T/C (dose: 100.0 mg/kg/injection, schedule: Q04DX002 (ip), vehicle: gum acacia) is 96 % of control; the T/C (dose: 200.0 mg/kg/injection, schedule: Q04DX002 (ip), vehicle: gum acacia) is 93 % of control; the T/C (dose: 400.0 mg/kg/injection, schedule: Q04DX002 (ip), vehicle: gum acacia) was 90 % of control.
Regarding `CCCCCCCCCC(=O)N1CCCN(C(=O)CCCCCCCCC)C1`, the T/C (dose: 30.0 mg/kg/injection, schedule: Q01DX001 (ip), vehicle: saline) was 102 % of control; the T/C under setting [4] was 98 % of control; the T/C under setting [5] was 93 % of control.
With `O=C1C=CC(=O)N1C12CC3CC(CC(C3)C1)C2`, the T/C was 98 % of control (dose: 12.5 mg/kg/injection, schedule: Q04DX002 (ip), vehicle: Klucel (hydroxypropylcellulose) (HPC)); 105 % of control (dose: 25.0 mg/kg/injection, schedule: Q04DX002 (ip), vehicle: Klucel (hydroxypropylcellulose) (HPC)); 94 % of control (dose: 50.0 mg/kg/injection, schedule: Q04DX002 (ip), vehicle: Klucel (hydroxypropylcellulose) (HPC)).
Consider `COP(=O)(O)NC(C)=O`, for which the T/C runs as follows: under setting [11], 105 % of control; under setting [3], 108 % of control; under setting [12], 91 % of control.
